# Results: patent US20080249303A1 (WYETH, priority 2007, published 2008)
# Experiments:
# [1] = Bazedoxifene acetate recovery in different extraction media, XRD peak area after tablet extraction; format: physicochemical; settings: 1.0 mL/tablet, XRD peak at 12.8° (Form A)
# Procedure: The coatings of three of the tablets were removed. The resulting tablets were then placed in a small beaker. About 3.0 ml of extraction medium solution was added to the beaker to produce a mixture. The mixture was broken up and stirred for about 5 to about 15 minutes. The resulting mixture was filtered and washed with an additional 3.0 ml of extraction medium solution three times to produce a solid (filtrand). The recovered solid was dried at about 40° C. overnight. The dried solid was grinded and pressed into pellets for XRD measurement. This procedure can be scaled up or down for various quantities of BZA tablets. This procedure was employed for the samples found in Table 1.
# X-Ray Powder Diffraction analyses were carried out on samples prepared according to Examples 1 and 2 using a Bruker D8 Discover X-ray diffractometer with GADDS. The diffractometer power was set at 40 kV and 40 mA. The collimator diameter of the instrument was about 0.8 mm and the detector-to-sample distance was set at about 30 cm. The X-ray incident angle relative to the pellet/tablet surface was about 40 and the detection angle relative to the pellet/tablet surface was about 16±0.2°. Data were collected at about 120 minutes to about 240 minutes.
# The following table illustrates the results of experiments using the extraction methods of Example 1. The extractions were performed using different extraction media and the results were measured in terms of peak area of bazedoxifene using XRD as described in Example 3.
# [2] = as above; format: physicochemical; settings: XRD peak at 12.8° (Form A)
smiles,measurement,setting,value
"Cc1c(-c2ccc(O)cc2)n(Cc2ccc(OCCN3CCCCCC3)cc2)c2ccc(O)cc12 [Bazedoxifene acetate, 1-[4-(2-azepan-1-yl-ethoxy)-benzyl]-2-(4-hydroxy-phenyl)-3-methyl-1H-indol-5-ol acetic acid]",Peak Area of Bazedoxifene,"[1]; Experiment 6, 0.50 M Ammonium Acetate, pH 6.20",22.7 count · degree
same,Peak Area of Bazedoxifene,"[1]; Experiment 7, 0.125 M Ammonium Acetate + 0.375 M Sodium Acetate, pH 6.85",23.1 count · degree
same,Peak Area of Bazedoxifene,"[1]; Experiment 8, 0.05 M Ammonium Acetate + 0.45 M Sodium Acetate, pH 7.18",32.0 count · degree
same,Peak Area of Bazedoxifene,"[1]; Experiment 9, 0.50 M Sodium Acetate, pH 8.34",36.2 count · degree
same,Peak Area of Bazedoxifene,"[1]; Experiment 10, 0.50 M Sodium Chloride, pH 9.20 adjusted by Sodium Hydroxide",21.8 count · degree
same,Peak Area of Bazedoxifene,"[2]; Experiment 1, Millipore Water, pH 5.9, 2.50 mL/tablet",3.3 count · degree
same,Peak Area of Bazedoxifene,"[2]; Experiment 2, Millipore Water, pH 5.9, 1.67 mL/tablet",4.9 count · degree
same,Peak Area of Bazedoxifene,"[2]; Experiment 3, Diluted Acetic Acid, pH 1.96, 2.50 mL/tablet",No Detection
same,Peak Area of Bazedoxifene,"[2]; Experiment 5, Millipore Water, pH 5.9, 0.83 mL/tablet",11.6 count · degree
